Test results reported in PubChem BioAssay AID1745844 (Carcinogenic Potency Database (CPDB), 2022).
The source made the active and inactive calls. The rule behind the calls is not given here.

Test system: rodent lifetime carcinogenesis bioassay, tumor incidence TD50
Assay: carcinogenic potency in animals, long-term in vivo studies, CPDB compilation (AID 1745844)

`CCN(N=O)C(=O)NCC(C)=O` showed a TD50 (hamster, strain Syrian Golden, females, by gavage, site: forestomach, lesion: carcinoma, dosed 30 weeks, study length 85 weeks) of 2.19 mg/kg/day, a TD50 (hamster, strain Syrian Golden, females, by gavage, site: forestomach, lesion: several types, types named in the paper, dosed 30 weeks, study length 85 weeks) of 0.983 mg/kg/day and a TD50 (hamster, strain Syrian Golden, females, by gavage, site: spleen, lesion: all vascular tumors, dosed 30 weeks, study length 85 weeks) of 0.394 mg/kg/day. The TD50 (hamster, strain Syrian Golden, males, by gavage, site: forestomach, lesion: carcinoma, dosed 30 weeks, study length 85 weeks) was 1.92 mg/kg/day, the TD50 (hamster, strain Syrian Golden, males, by gavage, site: forestomach, lesion: several types, types named in the paper, dosed 30 weeks, study length 85 weeks) was 0.506 mg/kg/day and the TD50 (hamster, strain Syrian Golden, males, by gavage, site: liver, lesion: cholangioma, dosed 30 weeks, study length 85 weeks) was 1.1 mg/kg/day. It also gave a TD50 (hamster, strain Syrian Golden, males, by gavage, site: spleen, lesion: hemangiosarcoma, dosed 30 weeks, study length 85 weeks) of 0.865 mg/kg/day, a TD50 (rat, strain Fischer 344, females, by gavage, site: lung, lesion: one or several types, types not named, dosed 30 weeks, study length 104 weeks) of 0.873 mg/kg/day and a TD50 (rat, strain Fischer 344, females, by gavage, site: mammary tissue, wider than the gland, lesion: carcinoma, dosed 30 weeks, study length 104 weeks) of 0.192 mg/kg/day. It also gave a TD50 (rat, strain Fischer 344, females, by gavage, site: nervous system, lesion: one or several types, types not named, dosed 30 weeks, study length 104 weeks) of 1.66 mg/kg/day, a TD50 (rat, strain Fischer 344, females, by gavage, site: uterus, lesion: one or several types, types not named, dosed 30 weeks, study length 104 weeks) of 1.84 mg/kg/day and a TD50 (rat, strain Fischer 344, females, in drinking water, site: colon, lesion: one or several types, types not named, dosed 30 weeks, study length 104 weeks) of 1.13 mg/kg/day. For the same compound, the TD50 (rat, strain Fischer 344, females, in drinking water, site: liver, lesion: one or several types, types not named, dosed 30 weeks, study length 104 weeks) was 5.53 mg/kg/day, the TD50 (rat, strain Fischer 344, females, in drinking water, site: lung, lesion: one or several types, types not named, dosed 30 weeks, study length 104 weeks) was 0.885 mg/kg/day and the TD50 (rat, strain Fischer 344, females, in drinking water, site: mammary tissue, wider than the gland, lesion: carcinoma, dosed 30 weeks, study length 104 weeks) was 0.748 mg/kg/day. The TD50 (rat, strain Fischer 344, females, in drinking water, site: nervous system, lesion: one or several types, types not named, dosed 30 weeks, study length 104 weeks) was 0.605 mg/kg/day, the TD50 (rat, strain Fischer 344, females, in drinking water, site: skin, lesion: one or several types, types not named, dosed 30 weeks, study length 104 weeks) was 1.79 mg/kg/day and the TD50 (rat, strain Fischer 344, females, in drinking water, site: thyroid gland, lesion: follicular-cell tumor, dosed 30 weeks, study length 104 weeks) was 0.804 mg/kg/day. For the same compound, the TD50 (rat, strain Fischer 344, females, in drinking water, site: uterus, lesion: one or several types, types not named, dosed 30 weeks, study length 104 weeks) was 1.49 mg/kg/day, the TD50 (rat, strain Fischer 344, males, by gavage, site: Zymbal's gland, lesion: one or several types, types not named, dosed 30 weeks, study length 104 weeks) was 0.499 mg/kg/day and the TD50 (rat, strain Fischer 344, males, by gavage, site: colon, lesion: one or several types, types not named, dosed 30 weeks, study length 104 weeks) was 0.562 mg/kg/day. The TD50 (rat, strain Fischer 344, males, by gavage, site: forestomach, lesion: one or several types, types not named, dosed 30 weeks, study length 104 weeks) was 0.861 mg/kg/day, the TD50 (rat, strain Fischer 344, males, by gavage, site: liver, lesion: one or several types, types not named, dosed 30 weeks, study length 104 weeks) was 3.39 mg/kg/day and the carcinogen call (rat, strain Fischer 344, males, by gavage, site: lung, lesion: one or several types, types not named, dosed 30 weeks, study length 104 weeks) was “positive”. The TD50 (rat, strain Fischer 344, males, by gavage, site: nervous system, lesion: one or several types, types not named, dosed 30 weeks, study length 104 weeks) was 1.37 mg/kg/day, the TD50 (rat, strain Fischer 344, males, by gavage, site: thyroid gland, lesion: follicular-cell tumor, dosed 30 weeks, study length 104 weeks) was 0.767 mg/kg/day and the TD50 (rat, strain Fischer 344, males, by gavage, site: tunica vaginalis, lesion: mesothelioma, dosed 30 weeks, study length 104 weeks) was 0.225 mg/kg/day. For the same compound, the TD50 (rat, strain Fischer 344, males, in drinking water, site: Zymbal's gland, lesion: one or several types, types not named, dosed 30 weeks, study length 104 weeks) was 1.13 mg/kg/day, the TD50 (rat, strain Fischer 344, males, in drinking water, site: colon, lesion: one or several types, types not named, dosed 30 weeks, study length 104 weeks) was 0.524 mg/kg/day and the TD50 (rat, strain Fischer 344, males, in drinking water, site: lung, lesion: one or several types, types not named, dosed 30 weeks, study length 104 weeks) was 0.231 mg/kg/day. It also gave a TD50 (rat, strain Fischer 344, males, in drinking water, site: nervous system, lesion: one or several types, types not named, dosed 30 weeks, study length 104 weeks) of 0.127 mg/kg/day, a TD50 (rat, strain Fischer 344, males, in drinking water, site: skin, lesion: one or several types, types not named, dosed 30 weeks, study length 104 weeks) of 0.982 mg/kg/day and a TD50 (rat, strain Fischer 344, males, in drinking water, site: tunica vaginalis, lesion: mesothelioma, dosed 30 weeks, study length 104 weeks) of 0.264 mg/kg/day.

Compound `C=CBr` has a TD50 (rat, strain Sprague-Dawley, females, inhaled, site: Zymbal's gland, lesion: squamous-cell carcinoma, dosed 81 weeks, study length 103 weeks) of 2240 mg/kg/day, a TD50 (rat, strain Sprague-Dawley, females, inhaled, site: liver, lesion: hepatocellular carcinoma, dosed 81 weeks, study length 103 weeks) of 749 mg/kg/day and a TD50 (rat, strain Sprague-Dawley, females, inhaled, site: liver, lesion: neoplastic nodule, dosed 81 weeks, study length 103 weeks) of 18.9 mg/kg/day. It also gave a TD50 (rat, strain Sprague-Dawley, females, inhaled, site: liver, lesion: several types, types named in the paper, dosed 81 weeks, study length 103 weeks) of 433 mg/kg/day, a TD50 (rat, strain Sprague-Dawley, females, inhaled, site: several sites, sites named in the paper, lesion: angiosarcoma, dosed 81 weeks, study length 103 weeks) of 19.2 mg/kg/day and a TD50 (rat, strain Sprague-Dawley, males, inhaled, site: Zymbal's gland, lesion: papilloma, dosed 76 weeks, study length 103 weeks) of 2760 mg/kg/day. For the same compound, the TD50 (rat, strain Sprague-Dawley, males, inhaled, site: Zymbal's gland, lesion: squamous-cell carcinoma, dosed 76 weeks, study length 103 weeks) was 409 mg/kg/day, the TD50 (rat, strain Sprague-Dawley, males, inhaled, site: liver, lesion: hepatocellular carcinoma, dosed 76 weeks, study length 103 weeks) was 387 mg/kg/day and the TD50 (rat, strain Sprague-Dawley, males, inhaled, site: liver, lesion: several types, types named in the paper, dosed 76 weeks, study length 103 weeks) was 303 mg/kg/day. It also gave a TD50 (rat, strain Sprague-Dawley, males, inhaled, site: several sites, sites named in the paper, lesion: angiosarcoma, dosed 76 weeks, study length 103 weeks) of 17.9 mg/kg/day.

`Cc1ccc(OP(=O)(Oc2ccc(C)cc2)Oc2ccc(C)cc2)cc1` was tested, and the carcinogen call (mouse, strain B6C3F1, females, in feed, site: any site (literature study), lesion: several types, types named in the paper, dosed 104 weeks, study length 105 weeks) was “negative (inactive)”, the TD50 (mouse, strain B6C3F1, females, in feed, site: lung, lesion: alveolar/bronchiolar adenoma + alveolar/bronchiolar carcinoma, dosed 104 weeks, study length 105 weeks) was 2310 mg/kg/day and the TD50 (mouse, strain B6C3F1, males, in feed, site: Harderian gland, lesion: adenoma, dosed 104 weeks, study length 105 weeks) was 184 mg/kg/day (inactive). For the same compound, the TD50 (mouse, strain B6C3F1, males, in feed, site: any site (literature study), lesion: several types, types named in the paper, dosed 104 weeks, study length 105 weeks) was 159 mg/kg/day, the TD50 (mouse, strain B6C3F1, males, in feed, site: liver, lesion: hepatocellular adenoma + hepatoblastoma + hepatocellular carcinoma, dosed 104 weeks, study length 105 weeks) was 968 mg/kg/day and the TD50 (mouse, strain B6C3F1, males, in feed, site: lung, lesion: alveolar/bronchiolar adenoma + alveolar/bronchiolar carcinoma, dosed 104 weeks, study length 105 weeks) was 187 mg/kg/day. The TD50 (rat, strain Fischer 344, females, in feed, site: all sites, lesion: mononuclear-cell leukemia, dosed 104 weeks, study length 104 weeks) was 35 mg/kg/day (inactive), the TD50 (rat, strain Fischer 344, females, in feed, site: any site (literature study), lesion: several types, types named in the paper, dosed 104 weeks, study length 104 weeks) was 21.6 mg/kg/day and the carcinogen call (rat, strain Fischer 344, males, in feed, site: any site (literature study), lesion: several types, types named in the paper, dosed 104 weeks, study length 104 weeks) was “negative (inactive)”. The TD50 (rat, strain Fischer 344, males, in feed, site: liver, lesion: hepatocellular adenoma + hepatoblastoma + hepatocellular carcinoma, dosed 104 weeks, study length 104 weeks) was 143 mg/kg/day.

In the case of `OCCN(CCO)c1nc(-c2cccs2)nc2ccccc12`, the TD50 (rat, strain Sprague-Dawley, females, in feed, site: any site (literature study), lesion: several types, types named in the paper, dosed 46 weeks, study length 66 weeks) is reported as 60.1 mg/kg/day.

`COc1cc(C=NNC(=O)c2ccncc2)ccc1O` was tested, and the TD50 (mouse, strain Not specified, both sexes, by gavage, site: any site (literature study), lesion: several types, types named in the paper, dosed 52 weeks, study length 52 weeks) was 27.4 mg/kg/day, the TD50 (mouse, strain Not specified, both sexes, by gavage, site: lung, lesion: adenocarcinoma, dosed 52 weeks, study length 52 weeks) was 45 mg/kg/day and the TD50 (mouse, strain Not specified, both sexes, by gavage, site: mammary gland, lesion: adenocarcinoma, dosed 52 weeks, study length 52 weeks) was 86.6 mg/kg/day.

`NNC(N)=O` showed a TD50 (mouse, strain Swiss albino, females, in drinking water, site: blood vessels, lesion: angioma, dosed 118 weeks, study length 118 weeks) of 975 mg/kg/day, a TD50 (mouse, strain Swiss albino, females, in drinking water, site: blood vessels, lesion: angiosarcoma, dosed 118 weeks, study length 118 weeks) of 798 mg/kg/day and a TD50 (mouse, strain Swiss albino, females, in drinking water, site: blood vessels, lesion: several types, types named in the paper, dosed 118 weeks, study length 118 weeks) of 395 mg/kg/day. It also gave a TD50 (mouse, strain Swiss albino, females, in drinking water, site: liver, lesion: several types, types named in the paper, dosed 118 weeks, study length 118 weeks) of 798 mg/kg/day, a TD50 (mouse, strain Swiss albino, females, in drinking water, site: lung, lesion: adenoma, dosed 118 weeks, study length 118 weeks) of 333 mg/kg/day and a TD50 (mouse, strain Swiss albino, females, in drinking water, site: lung, lesion: several types, types named in the paper, dosed 118 weeks, study length 118 weeks) of 223 mg/kg/day. The TD50 (mouse, strain Swiss albino, males, in drinking water, site: liver, lesion: hepatoma, dosed 118 weeks, study length 118 weeks) was 1420 mg/kg/day (inactive), the TD50 (mouse, strain Swiss albino, males, in drinking water, site: liver, lesion: several types, types named in the paper, dosed 118 weeks, study length 118 weeks) was 933 mg/kg/day and the TD50 (mouse, strain Swiss albino, males, in drinking water, site: lung, lesion: adenoma, dosed 118 weeks, study length 118 weeks) was 745 mg/kg/day. It also gave a TD50 (mouse, strain Swiss albino, males, in drinking water, site: lung, lesion: several types, types named in the paper, dosed 118 weeks, study length 118 weeks) of 833 mg/kg/day.

`C/C=C1/C[C@@H](C)[C@](O)(CO)C(=O)OCC2=CC[N+]3([O-])CC[C@@H](OC1=O)[C@@H]23` (stereo partly specified) showed a TD50 (rat, strain Wistar, females, in drinking water, site: liver, lesion: hepatoma, dosed 103 weeks, study length 104 weeks) of 1.27 mg/kg/day and a TD50 (rat, strain Wistar, males, in drinking water, site: liver, lesion: hepatoma, dosed 103 weeks, study length 104 weeks) of 0.499 mg/kg/day.

In the case of `CC[C@]1(O)C[C@@H]2CN(CCc3c([nH]c4ccccc34)[C@@](C(=O)OC)(c3cc4c(cc3OC)N(C)[C@H]3[C@@](O)(C(=O)OC)[C@H](OC(C)=O)[C@]5(CC)C=CCN6CC[C@]43[C@@H]65)C2)C1`, the carcinogen call (rat, strain BR 46, males, i.v., site: any site (literature study), lesion: several types, types named in the paper, dosed 52 weeks, study length 104 weeks) is reported as “negative (inactive)”.

For `COc1cc(S(C)=O)ccc1-c1nc2ccncc2[nH]1` (stereo unspecified), the TD50 (rat, strain Fischer 344, females, in feed, site: adrenal medulla, lesion: pheochromocytoma, benign, dosed 104 weeks, study length 104 weeks) was 450 mg/kg/day, the TD50 (rat, strain Fischer 344, females, in feed, site: adrenal medulla, lesion: several types, types named in the paper, dosed 104 weeks, study length 104 weeks) was 385 mg/kg/day and the TD50 (rat, strain Fischer 344, males, in feed, site: adrenal medulla, lesion: pheochromocytoma, benign, dosed 104 weeks, study length 104 weeks) was 45.4 mg/kg/day. The TD50 (rat, strain Fischer 344, males, in feed, site: adrenal medulla, lesion: pheochromocytoma, malignant, dosed 104 weeks, study length 104 weeks) was 481 mg/kg/day and the TD50 (rat, strain Fischer 344, males, in feed, site: adrenal medulla, lesion: several types, types named in the paper, dosed 104 weeks, study length 104 weeks) was 38.8 mg/kg/day.

With `CC(=O)N(O)c1ccc(-c2ccccc2)cc1` the carcinogen call (rat, strain Not specified, females, in feed, site: liver, lesion: one or several types, types not named, dosed 43 weeks, study length 65 weeks) was “negative (inactive)”.
